Results taken from ChEMBL document CHEMBL1131207, “Discovery and evaluation of a series of 3-acylindole imidazopyridine platelet-activating factor antagonists” (J Med Chem, 1998).

Legend:
[1] = molecular target: Platelet-activating factor receptor (Rattus norvegicus) (UniProt P46002); experiment: Ability to block the effect of exogenously administered PAF upon intravenous administration in PAF-induced rat skin permeability assay; assay type: functional, organism-based
[2] = molecular target: Platelet-activating factor receptor (Rattus norvegicus) (UniProt P46002); experiment: Tested in vivo for to block the effect of exogenously administered PAF upon oral administration in PAF-induced rat skin permeability assay; assay type: functional, organism-based

Sequence of Platelet-activating factor receptor (Rattus norvegicus) (P46002 whole entry): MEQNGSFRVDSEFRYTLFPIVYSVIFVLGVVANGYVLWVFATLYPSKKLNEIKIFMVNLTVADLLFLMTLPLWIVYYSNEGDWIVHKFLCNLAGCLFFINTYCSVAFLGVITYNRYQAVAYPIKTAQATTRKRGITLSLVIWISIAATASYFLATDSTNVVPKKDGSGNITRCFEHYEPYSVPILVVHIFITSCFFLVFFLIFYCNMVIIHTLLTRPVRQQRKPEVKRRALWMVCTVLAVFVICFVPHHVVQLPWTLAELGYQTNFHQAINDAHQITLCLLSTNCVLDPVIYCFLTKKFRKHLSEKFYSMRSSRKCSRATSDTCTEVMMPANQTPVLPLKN

Row | SMILES | ED50 [1] [mg/kg] | ED50 [2] [mg/kg]
1 | Cc1nc2cnccc2n1C1CCN(C(=O)c2cn(C(=O)N(C)C)c3cc(-c4ccc(F)cc4)ccc23)CC1 | > 1 | –
2 | COC(=O)c1cc(-c2ccc(F)cc2)cc2c1c(C(=O)c1ccc(Cn3c(C)nc4cnccc43)cc1)cn2C(=O)N(C)C | 0.002 | 0.64
3 | COc1cccc2c1c(C(=O)c1ccc(Cn3c(C)nc4cnccc43)cc1)cn2C(=O)N(C)C | 0.007 | 0.22
4 | Cc1nc2cnccc2n1Cc1ccc(C(=O)c2cn(C(=O)N(C)C)c3cccc(Br)c23)cc1 | 0.007 | 0.13
5 | COC(=O)c1cccc2c1c(C(=O)c1ccc(Cn3c(C)nc4cnccc43)cc1)cn2CC(=O)C(C)(C)C | 0.036 | –
6 | COC(=O)c1cccc2c1c(C(=O)CCCCn1c(C)nc3cnccc31)cn2C(=O)N(C)C | > 1 | –
7 | CCOCCn1cc(C(=O)CN2CCC(n3c(C)nc4cnccc43)CC2)c2c(Cl)cccc21 | 0.068 | –
8 | Cc1nc2cnccc2n1Cc1ccc(C(=O)c2cn(C(=O)N(C)C)c3cccc(F)c23)cc1 | 0.18 | –
9 | Cc1nc2cnccc2n1CN1CCN(S(=O)(=O)c2cn(C(=O)N(C)C)c3cc(-c4ccc(F)cc4)ccc23)CC1 | 0.019 | –
10 | Cc1nc2cnccc2n1Cc1ccc(C(=O)c2c[nH]c3c(-c4ccc(F)cc4)cccc23)cc1 | > 1 | –
11 | Cc1nc2cnccc2n1Cc1ccc(C(=O)c2cn(C(=O)N(C)C)c3cccc(C(=O)O)c23)cc1 | > 1 | –
12 | C#Cc1cccc2c1c(C(=O)c1ccc(Cn3c(C)nc4cnccc43)c(F)c1)cn2C(=O)NC | 0.006 | –
13 | COC(=O)c1cccc2c1c(C(=O)c1ccc(Cn3c(C)nc4ccccc43)cc1)cn2C(=O)N1CCCC1 | 1 | –
14 | Cc1nc2cnccc2n1Cc1ccc(C(=O)c2cn(C(=O)N(C)C)c3cccc(-c4ccco4)c23)cc1 | 0.007 | 0.79
15 | COC(=O)c1cccc2c1c(C(=O)c1ccc(Cn3c(C)nc4cnccc43)cc1)cn2C(=O)N(C)C | – | 0.22
16 | CNC(=O)n1cc(C(=O)c2ccc(Cn3c(C)nc4cnccc43)cc2)c2c(C(=O)OC)cccc21 | 0.007 | –
17 | COC(=O)c1cccc2c1c(C(=O)c1ccc(Cn3c(C)nc4cccnc43)cc1)cn2C(=O)N(C)C | 1.2 | –
18 | Cc1nc2cnccc2n1Cc1ccc(C(=O)c2cn(C(=O)N(C)C)c3cccc(Cl)c23)cc1 | 0.008 | 0.12
19 | Cc1nc2cnccc2n1Cc1ccc(C(=O)c2cn(C(=O)N(C)C)c3cccc(OC(=O)N(C)C)c23)cc1 | 0.005 | 0.34
20 | C#Cc1cccc2c1c(C(=O)c1ccc(Cn3c(C)nc4c[n+]([O-])ccc43)c(F)c1)cn2C(=O)N(C)C | > 0.5 | –

Row | SMILES | ED50 [1] [mg/kg] | ED50 [2] [mg/kg]
21 | COC(=O)c1cccc2c1c(C(=O)CN1CCC(n3c(C)nc4cnccc43)CC1)cn2C(=O)N(C)C | 0.006 | > 1
22 | COC(=O)c1cccc2c1c(C(=O)c1ccc(Cn3c(C)nc4c(O)nccc43)cc1)cn2C(=O)N(C)C | 0.25 | –
23 | Cc1nc2cnccc2n1Cc1ccc(C(=O)c2cn(C(=O)N(C)C)c3cccc(NC(=O)c4ccccc4)c23)cc1 | 0.11 | –
24 | Cc1nc2ccncc2n1Cc1ccc(C(=O)c2cn(C(=O)N(C)C)c3cc(-c4ccc(F)cc4)ccc23)cc1 | 1.1 | –
25 | Cc1nc2cnccc2n1Cc1ccc(C(=O)c2cn(C(=O)N(C)C)c3cccc(O)c23)cc1 | > 1 | –
26 | Cc1nc2cnccc2n1CC(=O)c1cn(C(=O)N(C)C)c2cc(-c3ccc(F)cc3)ccc12 | > 1 | –
27 | Cc1nc2cnccc2n1Cc1ccc(C(=O)c2c[nH]c3c(OCc4ccccc4)cccc23)cc1 | 0.24 | –
28 | CCOC(=O)c1cccc2c1c(C(=O)c1ccc(Cn3c(C)nc4cnccc43)cc1)cn2C(=O)N(C)C | 0.006 | > 1
29 | Cc1cccc2c1c(C(=O)c1ccc(Cn3c(C)nc4cnccc43)cc1)cn2C(=O)N(C)C | 0.004 | 0.2
30 | Cc1nc2cnccc2n1CCN1CCN(C(=O)c2cn(C(=O)N(C)C)c3cc(-c4ccc(F)cc4)ccc23)CC1 | > 1 | –
31 | Cc1nc2cnccc2n1Cc1ccc(C(=O)c2cn(C(=O)N(C)C)c3cccc(C(=O)OCc4ccccc4)c23)cc1 | 0.12 | –
32 | Cc1nc2cnccc2n1Cc1ccc(C(=O)c2cn(C(=O)N(C)C)c3cccc(C#N)c23)cc1 | 0.23 | –
33 | Cc1nc2cnccc2n1Cc1csc(C(=O)c2cn(C(=O)N(C)C)c3cc(-c4ccc(F)cc4)ccc23)n1 | 0.35 | –
34 | Cc1nc2cnccc2n1Cc1ccc(C(=O)c2cn(C(=O)N(C)C)c3cccc(C(=O)OC(C)C)c23)cc1 | 0.006 | –
35 | COC(=O)c1ccc(C(=O)OC)c2c(C(=O)c3ccc(Cn4c(C)nc5cnccc54)cc3)c[nH]c12 | 0.035 | 0.71
36 | COC(=O)c1cc(C#Cc2ccccc2)cc2c1c(C(=O)c1ccc(Cn3c(C)nc4cnccc43)cc1)cn2C(=O)N(C)C | 0.004 | 0.6
37 | Cc1nc2cnccc2n1Cc1ccc(C(=O)c2cn(C(=O)N(C)C)c3cccc(OC(=O)N(C)C)c23)cc1F | 0.005 | 2.7
38 | COC(=O)c1cccc2c1c(C(=O)c1ccc(Cn3c(C)nc4cnccc43)cc1)cn2C(N)=O | 0.12 | –
39 | Cc1nc2cnccc2n1Cc1ccc(C(=O)c2cn(C(=O)N(C)C)c3ccc(-c4ccc(F)cc4)cc23)cc1 | > 1 | –
